We go through two compounds from US7956194B2, “Microbiocidal (E.G. fungicidal) 1,2,3-triazole derivatives” (Syngenta Crop Protection, Inc., priority 2002, dated 2011).

Usually melting point stands for the temperature of the solid-liquid transition.

In turn, `Cn1nc(C(=O)Nc2cc(Cl)ccc2-c2ccccc2)c(C(F)F)n1` [Compound 3.017, 5-difluoromethyl-2-methyl-2H-1,2,3-triazole-4-carboxylic acid (4-chloro-biphenyl-2-yl)-amide] gave a melting point of 155 to 156 °C.

On to `CC(C)CC(C)c1ccccc1NC(=O)c1nn(C)nc1C(F)(F)F` (centres unmarked) [Compound 2.219, 2-methyl-5-trifluoromethyl-2H-1,2,3-triazole-4-carboxylic acid [2-(1,3-dimethyl-butyl)-phenyl]-amide], for which the melting point lay in the range of 94.6 to 95.4 °C.
